Measurements from paper PMC10023679, “Amide-to-ester substitution as a stable alternative to N-methylation for increasing membrane permeability in cyclic peptides” (Nature Communications, 2023).
Like-named read-outs stand apart in the source and are kept apart here. Non-standard residues stand in square brackets, D forms with d. Residues, ends and D or L forms follow the SMILES beside them. NMeY = CN[C@@H](Cc1ccc(O)cc1)C(=O)O; Hpla = O=C(O)[C@@H](O)Cc1ccc(O)cc1; Hica(2S) = CC(C)C[C@H](O)C(=O)O

Experiments:
[1] = Stability in simulated intestinal fluid (SIF); type: in vitro ADME; settings: pH 6.8, 37 °C; for Degradation in SIF: 1–4 h
Description: (§1) The stability assay of peptides in SIF was conducted according to United States Pharmacopeia & National Formulary (USP 25-NF 20)[64] and the previous report[65] with some modifications as follows. SIF used in this study was prepared by dissolving pancreatin (1.25 mg/mL) (Sigma, P7545, 8 × USP specifications) in 50 mM phosphate buffer at pH 6.8. The solution was vortexed for 1 min, sonicated for 15 min, centrifuged at 20,000 × g for 10 min, and filtered before use. 57 μL of SIF was incubated at 37 °C for 15 min and 3 μL of 1 μM peptide solution in DMSO was added to the warmed […]. After 1, 2, or 4 h, 60 μL of ice-cold ultra-pure water containing 5% trifluoroacetic acid was added and 120 μL of 30% acetonitrile in ultra-pure water was added. The samples were filtered and injected into UPLC.

[2] = Stability in simulated gastric fluid (SGF); type: in vitro ADME; settings: pH 1.2, 37 °C; for Degradation in SGF: 1–4 h
Description: as §1, with “SGF” for “SIF”, “pepsin (3.6” for “pancreatin (1.25”, “P7012, 3357 Unit/mg)” for “P7545, 8 × USP specifications)”, “an aqueous solution of 2 mg/mL sodium chloride (NaCl)” for “50 mM phosphate buffer”, “1.2.” for “6.8.”

[3] = 1,9-decadiene-water distribution coefficient; type: physicochemical; settings: decadiene and aqueous buffer
Mouse serum stability = type: in vitro ADME; settings: mouse serum containing 1% DMSO, 37 °C; for Stability in mouse serum: up to 24 h
Description: Compounds were incubated in mouse serum containing 1% DMSO at 37 °C for 24 h in triplicate. At each time point, 20 μL of the solution was aliquoted and diluted four times using acetonitrile to precipitate serum proteins. After centrifugation, the supernatant was diluted with water and the concentration of the intact peptide was quantified by LC-MS. For other peptides, the amount of residual intact peptides was evaluated after incubation in mouse plasma at 37 °C for 30 min. The amount of intact peptides was determined by taking the ratio of the LC-MS peak area of intact peptides just before and after the incubation.

Solubility assay = type: physicochemical; settings: phosphate buffer (pH 7.4) containing 1.2% DMSO, 37 °C, read-out: Water solubility
[4] = Caco-2 assay (permeability across cell monolayers); type: in vitro ADME; settings: for Papp: Caco-2, 1 μM compounds in HBSS (pH 7.4) containing 10 mM HEPES and 1% DMSO, 3 h incubation at 37 °C, read-out: Caco-2 permeability Pa; for efflux ratio: read-out: Efflux ratio, Pe (basolateral-to-apical)/Pe (apical-to-basolateral)
in vitro = in vitro ADME; settings: PAMPA
Caco-2 cells = experiment: Caco-2 assay (permeability across cell monolayers); type: in vitro ADME; settings: 55 μM

Row | SMILES | Degradation in SIF ([1]; SIF-containing pancreatin) | Degradation in SGF ([2]; SGF-containing pepsin) | log Ddec/w (1,9-decadiene–water distribution coefficient) [3] | Stability in mouse serum (Mouse serum stability) | Papp [4] [×10⁻⁶ cm/s] | Papp (in vitro) [×10⁻⁶ cm/s] | other results
1 | CC(C)C[C@@H]1NC(=O)[C@H](Cc2ccc(O)cc2)NC(=O)[C@H]2CCCN2C(=O)[C@H](CC(C)C)NC(=O)[C@H](CC(C)C)NC(=O)[C@@H](CC(C)C)NC1=O [CP1] (cyclo(LL[dP]YL[dL])) | no significant degradation | no significant degradation | −0.74 | stable |  |  | solubility kinetic at 4 h (Solubility assay): > 100 µM
2 | CC(C)C[C@H](NC(=O)[C@H](CC(C)C)NC(=O)[C@@H](CC(C)C)NC(=O)[C@H](CC(C)C)NC(=O)[C@H](Cc1ccc(O)cc1)OC(=O)[C@H]1CCCN1)C(N)=O [DP1L-NH2] (H-[dP][Hpla]L[dL]LL-NH2) |  |  |  |  |  |  | Time within which degraded in mouse serum (Mouse serum stability): ≤ 2 h
3 | CC(C)C[C@@H]1NC(=O)[C@H](Cc2ccc(O)cc2)OC(=O)[C@H]2CCCN2C(=O)[C@H](CC(C)C)NC(=O)[C@H](CC(C)C)NC(=O)[C@@H](CC(C)C)NC1=O [DP1] (cyclo(LL[dP][Hpla]L[dL])) | no significant degradation | no significant degradation | 1.2 | stable | 2 | 2.9 | 
4 | CC(C)C[C@@H]1NC(=O)[C@@H](CC(C)C)NC(=O)[C@H](CC(C)C)OC(=O)[C@H](Cc2ccc(O)cc2)NC(=O)[C@H]2CCCN2C(=O)[C@H](CC(C)C)NC1=O [DP2] (cyclo(LL[dP]Y[Hica(2S)][dL])) |  |  |  |  | 0.9 | 2 | efflux ratio ([4]; Caco-2, pH 7.4, Inhibitor (+): quinidine, sulfasalazine, benzbromarone, 2 h incubation): 1.05; efflux ratio ([4]; Caco-2, pH 7.4, Inhibitor (–), 1 μM, 2 h incubation): 27.2; Papp A→B ([4]; Caco-2, pH 7.4, Inhibitor (+): preincubated with 50 µM quinidine, 20 µM sulfasalazine, 30 µM benzbromarone, 2 h incubation, read-out: Pe (apical-to-basolateral)): 14.6 ± 3.5 ×10⁻⁶ cm/s; Papp B→A ([4]; Caco-2, pH 7.4, Inhibitor (+): preincubated with 50 µM quinidine, 20 µM sulfasalazine, 30 µM benzbromarone, 2 h incubation, read-out: Pe (basolateral-to-apical)): 15.3 ± 1.1 ×10⁻⁶ cm/s; Papp A→B at 2 h, 1 μM ([4]; human, Caco-2, pH 7.4, Inhibitor (–), 1 μM, 2 h incubation, read-out: Pe (apical-to-basolateral)): 1.5 ± 0.4 ×10⁻⁶ cm/s; Papp B→A at 2 h, 1 μM ([4]; human, Caco-2, pH 7.4, Inhibitor (–), 1 μM, 2 h incubation, read-out: Pe (basolateral-to-apical)): 40.8 ± 11 ×10⁻⁶ cm/s; Caco-2 permeability compared with CP1 at higher concentration (Caco-2 cells): significantly higher permeability than CP1
5 | CC(C)C[C@@H]1NC(=O)[C@@H](CC(C)C)NC(=O)[C@H](CC(C)C)NC(=O)[C@H](Cc2ccc(O)cc2)N(C)C(=O)[C@H]2CCCN2C(=O)[C@H](CC(C)C)NC1=O [MP1] (cyclo(LL[dP][NMeY]L[dL])) | no significant degradation | no significant degradation | 0.052 | stable | 0.6 | 1.7 | 
6 | CC[C@H](C)[C@@H]1NC(=O)[C@H](Cc2ccc(O)cc2)NC(=O)[C@@H](N)CSSC[C@@H](C(=O)N2CCC[C@H]2C(=O)N[C@@H](CC(C)C)C(=O)NCC(N)=O)NC(=O)[C@H](CC(N)=O)NC(=O)[C@H](CCC(N)=O)NC1=O [oxytocin, reference compound] |  |  |  |  |  |  | Fraction degraded in SIF ([1]; SIF-containing pancreatin, at 4 h): more than 90%; metabolised at 4 h, 0.05 μM ([1]; simulated intestinal fluid (SIF) containing pancreatin, at 4 h, read-out: Fraction degraded in SIF): 94%
7 | C[C@H](N)C(=O)NCC(=O)N[C@H]1CSSC[C@@H](C(=O)O)NC(=O)[C@H](CO)NC(=O)[C@H]([C@@H](C)O)NC(=O)[C@H](Cc2ccccc2)NC(=O)[C@H]([C@@H](C)O)NC(=O)[C@H](CCCCN)NC(=O)[C@H](Cc2c[nH]c3ccccc23)NC(=O)[C@H](Cc2ccccc2)NC(=O)[C@H](Cc2ccccc2)NC(=O)[C@H](CC(N)=O)NC(=O)[C@H](CCCCN)NC1=O [somatostatin, reference compound] |  |  |  |  |  |  | Fraction degraded in SGF ([2]; SGF-containing pepsin, at 4 h): more than 90%; metabolised at 4 h, 0.05 μM ([2]; simulated gastric fluid (SGF) containing pepsin, at 4 h, read-out: Fraction degraded in SGF): 98%
